This experiment has as its target Btk (Homo sapiens (Human), UniProt Q06187). Nature of the experiment: standard biochemical Btk Kinase Assay (Example 901).

The structures appear in SMILES notation.

Sequence of Btk (Q06187 whole entry): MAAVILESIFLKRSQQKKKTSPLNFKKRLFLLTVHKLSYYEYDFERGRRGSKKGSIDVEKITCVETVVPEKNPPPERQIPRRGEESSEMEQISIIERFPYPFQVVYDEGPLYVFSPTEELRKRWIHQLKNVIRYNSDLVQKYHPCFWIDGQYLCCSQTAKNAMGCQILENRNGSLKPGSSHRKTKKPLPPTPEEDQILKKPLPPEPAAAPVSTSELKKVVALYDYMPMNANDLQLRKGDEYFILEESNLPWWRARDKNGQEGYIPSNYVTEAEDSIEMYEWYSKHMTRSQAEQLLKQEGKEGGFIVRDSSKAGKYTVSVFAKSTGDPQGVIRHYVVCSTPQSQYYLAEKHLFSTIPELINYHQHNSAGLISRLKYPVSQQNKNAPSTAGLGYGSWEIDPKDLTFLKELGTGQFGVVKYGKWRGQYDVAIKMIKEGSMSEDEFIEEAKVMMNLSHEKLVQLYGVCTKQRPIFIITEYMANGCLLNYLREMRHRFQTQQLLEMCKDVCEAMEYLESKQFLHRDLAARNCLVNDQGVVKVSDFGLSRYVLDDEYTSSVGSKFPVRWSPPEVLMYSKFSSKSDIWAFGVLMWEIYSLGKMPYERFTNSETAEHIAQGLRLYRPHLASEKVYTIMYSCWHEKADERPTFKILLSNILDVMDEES
Description: Determination of IC50 values can be accomplished using conventional techniques known in the art. In general, an IC50 can be determined by measuring the activity of a given enzyme in the presence of a range of concentrations of the inhibitor under study. The experimentally obtained values of enzyme activity then are plotted against the inhibitor concentrations used. […] Analogously, other inhibitory concentrations can be defined through appropriate determinations of activity.

The IC50 is the concentration at which inhibition is half-maximal. Where the note is “Table 1”, `Cc1c(-c2cc(Nc3cc4n(n3)CCN(C)C4)c(=O)[nH]n2)cccc1N1CCn2c(cc3c2CCCC3)C1=O` [Example 101] displayed an IC50 of 2 nM. That is a single-digit nanomolar value.

For the setting “Table 1”, `Cc1c(-c2cc(Nc3cc4n(n3)CCN(C)C4)c(=O)[nH]n2)cccc1N1CCn2c(cc3ccccc32)C1=O` [Example 102] came in with an IC50 of 22.9 nM. This IC50 is about 11-fold higher than that of the compound before.

Compound `Cc1c(-c2cc(Nc3cc4n(n3)CCN(C)C4)c(=O)n(C)n2)cccc1N1Cc2c(sc3ccccc23)C1=O` [Example 103, 4-{2-Methyl-3-[1-methyl-5-({5-methyl-4H,5H,6H,7H-pyrazolo[1,5-a]pyrazin-2-yl}amino)-6-oxo-1,6-dihydropyridazin-3-yl]phenyl}-7-thia-4-azatricyclo[6.4.0.0^2,6]dodeca-1(8),2(6),9,11-tetraen-5-one] came in with an IC50 (Table 1) of 3200 nM. This IC50 lies about 140-fold higher than the previous one.

Consider `Cn1cc(-c2cccc(N3CCn4c(cc5c4CCCC5)C3=O)c2CO)cc(Nc2cc(C3CC3)[nH]n2)c1=O` [Example 106, 2-(3-(5-(5-cyclopropyl-1H-pyrazol-3-ylamino)-1-methyl-6-oxo-1,6-dihydropyridin-3-yl)-2-(hydroxymethyl)phenyl)-3,4,6,7,8,9-hexahydropyrazino[1,2-a]indol-1(2H)-one], for which, for the setting “Table 1”, the IC50 was found to be 1 nM.

For the compound `Cn1cc(-c2cccc(N3CCn4c(cc5c4CCCC5)C3=O)c2CO)cc(Nc2ccc(N3CCOCC3)cn2)c1=O` [Example 107, 2-(2-(hydroxymethyl)-3-(1-methyl-5-(5-morpholinopyridin-2-ylamino)-6-oxo-1,6-dihydropyridin-3-yl)phenyl)-3,4,6,7,8,9-hexahydropyrazino[1,2-a]indol-1(2H)-one], the IC50 (Table 1) was 10.1 nM. This IC50 is about 10-fold higher than that of the compound before.

The compound `CC(=O)N1CCn2nc(Nc3cc(-c4cccc(N5CCn6c(cc7c6CCCC7)C5=O)c4CO)cn(C)c3=O)cc2C1` [Example 108, 2-(3-(5-(5-acetyl-4,5,6,7-tetrahydropyrazolo[1,5-a]pyrazin-2-ylamino)-1-methyl-6-oxo-1,6-dihydropyridin-3-yl)-2-(hydroxymethyl)phenyl)-3,4,6,7,8,9-hexahydropyrazino[1,2-a]indol-1(2H)-one] registered an IC50 (Table 1) of 6.1 nM.

For `Cn1cc(-c2cccc(N3CCc4c(sc5c4CCCC5)C3=O)c2CO)nc(Nc2cnn(CCO)c2)c1=O` [Example 116, 5-[3-(6-{[1-(2-Hydroxyethyl)-1H-pyrazol-4-yl]amino}-4-methyl-5-oxo-4,5-dihydropyrazin-2-yl)-2-(hydroxymethyl)phenyl)-8-thia-5-azatricyclo[7.4.0.02,7]trideca-1(9),2(7)-dien-6-one], the IC50 (Table 1) was found to be 6 nM.

As for `Cn1nc(Nc2cc(-c3cccc(N4CCc5c(sc6c5CCCC6)C4=O)c3CO)nn(C)c2=O)cc1C(C)(C)O` [Example 119, 5-[2-(hydroxymethyl)-3-(5-{[5-(2-hydroxypropan-2-yl)-1-methyl-1H-pyrazol-3-yl]amino}-1-methyl-6-oxo-1,6-dihydropyridazin-3-yl)phenyl]-8-thia-5-azatricyclo[7.4.0.02,7]trideca-1(9),2(7)-dien-6-one], inhibition (Table 1) was half-maximal at 7 nM (IC50).

In turn, `Cn1cc(-c2cc(F)cc(N3CCn4c(cc5c4CCCC5)C3=O)c2CO)cc(Nc2cc3n(n2)CCOC3)c1=O` [Example 149, 2-(3-(5-(6,7-Dihydro-4H-pyrazolo[5,1-c][1,4]oxazin-2-ylamino)-1-methyl-6-oxo-1,6-dihydropyridin-3-yl)-5-fluoro-2-(hydroxymethyl)phenyl)-3,4,6,7,8,9-hexahydropyrazino[1,2-a]indol-1(2H)-one] showed an IC50 (Table 2) of 5 nM.

The compound `Cn1cc(-c2cc(F)cc(N3CCn4c(cc5c4CCCC5)C3=O)c2CO)cc(Nc2ccc(C3CCN(C4COC4)CC3)cn2)c1=O` [Example 265, 2-(5-Fluoro-2-(hydroxymethyl)-3-(1-methyl-5-(5-(1-(oxetan-3-yl)piperidin-4-yl)pyridin-2-ylamino)-6-oxo-1,6-dihydropyridin-3-yl)phenyl)-3,4,6,7,8,9-hexahydropyrazino[1,2-a]indol-1(2H)-one] registered an IC50 (Table 2) of 2.8 nM. Against the preceding compound, the IC50 is about 1.8-fold lower.

In turn, `CN1CC(c2ccc(Nc3cc(-c4cc(F)cc(N5CCn6c(cc7c6CC(C)(C)C7)C5=O)c4CO)cn(C)c3=O)nc2)C1` [Example 271, 10-[5-Fluoro-2-(hydroxymethyl)-3-(1-methyl-5-{[5-(1-methylazetidin-3-yl)pyridine-2-yl]amino}-6-oxo-1,6-dihydropyridin-3-yl)phenyl]-4,4-dimethyl-1,10-diazatricyclo[6.4.0.0^2,6]dodeca-2(6),7-dien-9-one] gave an IC50 (Table 2) of 4.7 nM.

Regarding `Cn1cc(-c2cc(F)cc(N3CCn4c(cc5c4CC(C)(C)C5)C3=O)c2CO)cc(Nc2ccc(CN3CCOCC3)cn2)c1=O` [Example 274, 10-[5-Fluoro-2-(hydroxymethyl)-3-(1-methyl-5-{[5-(morpholin-4-ylmethyl)pyridine-2-yl]amino}-6-oxo-1,6-dihydropyridin-3-yl)phenyl]-4,4-dimethyl-1,10-diazatricyclo[6.4.0.0^2,6]dodeca-2(6),7-dien-9-one], the IC50 (Table 2) stood at 2.34 nM.

`Cc1cc(Nc2cc(-c3cc(F)cc(N4CCn5c(cc6c5CC(C)(C)C6)C4=O)c3CO)cn(C)c2=O)n[nH]1` [Example 276, 10-[5-Fluoro-2-(hydroxymethyl)-3-{1-methyl-5-[(5-methyl-1H-pyrazol-3-yl)amino]-6-oxo-1,6-dihydropyridin-3-yl}phenyl]-4,4-dimethyl-1,10-diazatricyclo[6.4.0.0^2,6]dodeca-2(6),7-dien-9-one] registered an IC50 (Table 2) of 2.2 nM.

The compound `CN1CCC(c2ccc(Nc3nc(-c4cc(F)cc(N5CCc6c(sc7c6CC(C)(C)C7)C5=O)c4CO)cn(C)c3=O)cc2)CC1` [Example 278, 10-[5-Fluoro-2-(hydroxymethyl)-3-(4-methyl-6-{[4-(1-methylpiperidin-4-yl)phenyl]amino}-5-oxo-4,5-dihydropyrazin-2-yl)phenyl]-4,4-dimethyl-7-thia-10-azatricyclo[6.4.0.0^2,6]dodeca-1(8),2(6)-dien-9-one] yielded an IC50 (Table 2) of 2.6 nM. The IC50 values of the last two compounds are within 1.5-fold of each other.

For the compound `CN1CCC(c2ccc(Nc3nc(-c4cc(F)cc(N5CCc6c(sc7c6CCCC7)C5=O)c4CO)cn(C)c3=O)cc2)CC1` [Example 281, 5-[5-Fluoro-2-(hydroxymethyl)-3-(4-methyl-6-{[4-(1-methylpiperidin-4-yl)phenyl]amino}-5-oxo-4,5-dihydropyrazin-2-yl)phenyl]-8-thia-5-azatricyclo[7.4.0.0^2,7]trideca-1(9),2(7)-dien-6-one], the midpoint of inhibition (Table 2), the IC50, lay at 5.2 nM.

Under “Table 2”, `CN1CCC(c2ccc(Nc3nc(-c4cc(F)cc(N5CCn6c(cc7c6CCCC7)C5=O)c4CO)cn(C)c3=O)cc2)CC1` [Example 282, 2-(5-Fluoro-2-(hydroxymethyl)-3-(4-methyl-6-(4-(1-methylpiperidin-4-yl)phenylamino)-5-oxo-4,5-dihydropyrazin-2-yl)phenyl)-3,4,6,7,8,9-hexahydropyrazino[1,2-a]indol-1(2H)-one] yielded an IC50 of 4 nM.

Turning to `CN1CCc2cc(Nc3nc(-c4cc(F)cc(N5CCn6c(cc7c6CCCC7)C5=O)c4CO)cn(C)c3=O)ccc2C1` [Example 283, 2-(5-Fluoro-2-(hydroxymethyl)-3-(4-methyl-6-(2-methyl-1,2,3,4-tetrahydroisoquinolin-6-ylamino)-5-oxo-4,5-dihydropyrazin-2-yl)phenyl)-3,4,6,7,8,9-hexahydropyrazino[1,2-a]indol-1(2H)-one], the IC50 (Table 2) is 8.1 nM.

`CN1CCC[C@@H]1c1ccc(Nc2cc(-c3cc(F)cc(N4CCn5c(cc6c5CC(C)(C)C6)C4=O)c3CO)cn(C)c2=O)nc1` [Example 291, 10-[5-Fluoro-2-(hydroxymethyl)-3-[1-methyl-5-({5-[(2R)-1-methylpyrrolidin-2-yl]pyridine-2-yl}amino)-6-oxo-1,6-dihydropyridin-3-yl]phenyl]-4,4-dimethyl-1,10-diazatricyclo[6.4.0.0^2,6]dodeca-2(6),7-dien-9-one]: the IC50 (Table 2) turned out to be 1.74 nM.

Regarding `Cn1cc(-c2cc(F)cc(N3CCn4c(cc5c4CC(C)(C)C5)C3=O)c2CO)cc(Nc2ccc3c(n2)CCN(C2COC2)C3)c1=O` [Example 292, 10-[5-Fluoro-2-(hydroxymethyl)-3-(1-methyl-5-{[6-(oxetan-3-yl)-5,6,7,8-tetrahydro-1,6-naphthyridin-2-yl]amino}-6-oxo-1,6-dihydropyridin-3-yl)phenyl]-4,4-dimethyl-1,10-diazatricyclo[6.4.0.0^2,6]dodeca-2(6),7-dien-9-one], where the note is “Table 2”, the IC50 came out at 11.6 nM.

`CN1CC(Oc2ccc(Nc3cc(-c4cc(F)cc(N5CCn6c(cc7c6CCCC7)C5=O)c4CO)cn(C)c3=O)nc2)C1` [Example 293, 2-(5-Fluoro-2-(hydroxymethyl)-3-(1-methyl-5-(5-(1-methylazetidin-3-yloxy)pyridin-2-ylamino)-6-oxo-1,6-dihydropyridin-3-yl)phenyl)-3,4,6,7,8,9-hexahydropyrazino[1,2-a]indol-1(2H)-one] showed an IC50 (Table 2) of 9.8 nM. This IC50 and that of the compound before are within 1.5-fold of each other.

In turn, `CN1CCC(c2ccc(Nc3nc(-c4cc(F)cc(N5CCn6c(cc7c6CC(C)(C)C7)C5=O)c4CO)cn(C)c3=O)cc2)CC1` [Example 294, 10-[5-Fluoro-2-(hydroxymethyl)-3-(4-methyl-6-{[4-(1-methylpiperidin-4-yl)phenyl]amino}-5-oxo-4,5-dihydropyrazin-2-yl)phenyl]-4,4-dimethyl-1,10-diazatricyclo[6.4.0.0^2,6]dodeca-2(6),7-dien-9-one] registered a half-inhibitory concentration (IC50) (Table 2) of 16 nM.

Under “Table 2”, `CN(C)CCOc1ccc(Nc2cc(-c3cc(F)cc(N4CCn5c(cc6c5CCCC6)C4=O)c3CO)cn(C)c2=O)nc1` [Example 297, 2-(3-(5-(5-(2-(Dimethylamino)ethoxy)pyridin-2-ylamino)-1-methyl-6-oxo-1,6-dihydropyridin-3-yl)-5-fluoro-2-(hydroxymethyl)phenyl)-3,4,6,7,8,9-hexahydropyrazino[1,2-a]indol-1(2H)-one] displayed an IC50 of 4.2 nM.

Turning to `CN1CC(c2ccc(Nc3nc(-c4cc(F)cc(N5CCc6c(sc7c6CC(C)(C)C7)C5=O)c4CO)cn(C)c3=O)cc2)C1` [Example 298, 10-[5-fluoro-2-(hydroxymethyl)-3-(4-methyl-6-{[4-(1-methylazetidin-3-yl)phenyl]amino}-5-oxopyrazin-2-yl)phenyl]-4,4-dimethyl-7-thia-10-azatricyclo[6.4.0.0^2,6]dodeca-1(8),2(6)-dien-9-one], the IC50 (Table 2) worked out at 5.3 nM.

`Cn1cc(-c2cccc(N3CCn4c(cc5c4CCCC5)C3=O)c2CO)cc(Nc2ccc(N3CCNCC3)cn2)c1=O` [Example 301, 2-(2-(Hydroxymethyl)-3-(1-methyl-6-oxo-5-(5-(piperazin-1-yl)pyridin-2-ylamino)-1,6-dihydropyridin-3-yl)phenyl)-3,4,6,7,8,9-hexahydropyrazino[1,2-a]indol-1(2H)-one]: half-maximal inhibition (Table 2) (IC50) was put at 6.1 nM.

(Values after patent US8618107B2 (Gilead Connecticut, Inc., priority 2010, dated 2013).)
